± gives the standard deviation of the averaged measurements.
Experiments:
[1] = compound: COc1cccc2c1C(=O)c1c(O)c3c(c(O)c1C2=O)C[C@@](O)(C(=O)CO)C[C@@H]3O[C@H]1C[C@H](N)[C@H](O)[C@H](C)O1 [DOXORUBICIN]; assay: surviving fraction relative to DMSO-only wells; higher = less growth inhibition; conditions: exposure time: 5 days
Method in brief: (§1)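 At 250–500 cells per well in 384-well plates, log-phase tumour cell lines were seeded and, 24 hours on, exposed continuously for five days to inhibitors at 0.5, 1, 5, 10, 50, 100, 500 and 1000 nM. Viability readout was CellTiter-Glo luminescence, reported as surviving fraction normalised to the median of DMSO-only wells.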

[2] = compound: CCN(CC)CCCCNc1ncc2cc(-c3cc(OC)cc(OC)c3)c(NC(=O)NC(C)(C)C)nc2n1; assay: as above; conditions: exposure time: 5 days
Method in brief: as §1

Row | Test System | surviving fraction ([1]; 0.5 nM) | surviving fraction ([1]; 1 nM) | surviving fraction ([1]; 5 nM) | surviving fraction ([1]; 10 nM) | surviving fraction ([1]; 50 nM) | surviving fraction ([1]; 100 nM) | surviving fraction ([1]; 500 nM) | surviving fraction ([1]; 1000 nM) | surviving fraction ([2]; 0.5 nM) | surviving fraction ([2]; 1 nM) | surviving fraction ([2]; 5 nM) | surviving fraction ([2]; 10 nM) | surviving fraction ([2]; 50 nM) | surviving fraction ([2]; 100 nM) | surviving fraction ([2]; 500 nM) | surviving fraction ([2]; 1000 nM)
1 | MDAMB436 BREAST | 0.895 ± 0.077 | 0.905 ± 0.069 | 0.822 ± 0.12 | 0.783 ± 0.026 | 0.484 ± 0.036 | 0.423 ± 0.049 | 0.297 ± 0.016 | 0.269 ± 0.031 | 0.974 ± 0.053 | 0.802 ± 0.074 | 0.912 ± 0.026 | 0.911 ± 0.041 | 0.943 ± 0.1 | 0.974 ± 0.033 | 0.911 ± 0.032 | 0.878 ± 0.032
2 | MDAMB453 BREAST | 1.05 ± 0.045 | 1.04 ± 0.065 | 1.07 ± 0.017 | 1.08 ± 0.044 | 0.723 ± 0.065 | 0.395 ± 0.066 | 0.0503 ± 0.0055 | 0.0433 ± 0.0023 | 0.981 ± 0.029 | 1.03 ± 0.032 | 1.05 ± 0.058 | 1.05 ± 0.043 | 1.03 ± 0.082 | 1.04 ± 0.09 | 1.07 ± 0.033 | 0.814 ± 0.053
3 | MDAMB468 BREAST | 0.897 ± 0.065 | 0.931 ± 0.075 | 0.992 ± 0.039 | 0.969 ± 0.013 | 0.49 ± 0.18 | 0.342 ± 0.006 | 0.11 ± 0.035 | 0.038 ± 0.0072 | 0.929 ± 0.043 | 0.959 ± 0.06 | 0.996 ± 0.005 | 0.985 ± 0.003 | 0.975 ± 0.055 | 1.1 ± 0.033 | 0.983 ± 0.033 | 0.956 ± 0.021
4 | MFM223 BREAST | 1.11 ± 0.045 | 1.05 ± 0.032 | 0.975 ± 0.069 | 0.702 ± 0.12 | 0.669 ± 0.082 | 0.221 ± 0.013 | 0.079 ± 0.0053 | 0.052 ± 0.007 | 1.02 ± 0.04 | 1.1 ± 0.022 | 0.982 ± 0.1 | 0.823 ± 0.089 | 0.361 ± 0.029 | 0.277 ± 0.019 | 0.282 ± 0.026 | 0.258 ± 0.012
5 | MG63 BONE | 1.02 ± 0.041 | 1.04 ± 0.053 | 1.04 ± 0.022 | 1.03 ± 0.028 | 0.21 ± 0.014 | 0.16 ± 0.025 | 0.0327 ± 0.0025 | 0.031 ± 0.0017 | 0.9463 ± 0.0067 | 0.983 ± 0.012 | 0.998 ± 0.013 | 0.965 ± 0.016 | 0.8687 ± 0.0035 | 0.771 ± 0.013 | 0.6363 ± 0.0049 | 0.641 ± 0.016
6 | MHM BONE | 0.992 ± 0.027 | 1.03 ± 0.016 | 1.008 ± 0.009 | 1.005 ± 0.0081 | 0.841 ± 0.029 | 0.792 ± 0.02 | 0.296 ± 0.031 | 0.16 ± 0.019 | 0.991 ± 0.026 | 0.993 ± 0.014 | 0.982 ± 0.023 | 1.001 ± 0.0095 | 0.964 ± 0.02 | 0.915 ± 0.029 | 0.7063 ± 0.007 | 0.664 ± 0.017
7 | NCIH441 LUNG | 1.04 ± 0.054 | 1.06 ± 0.051 | 0.937 ± 0.032 | 0.799 ± 0.029 | 0.558 ± 0.013 | 0.461 ± 0.024 | 0.246 ± 0.019 | 0.096 ± 0.0069 | 1 ± 0.052 | 1.04 ± 0.052 | 1 ± 0.022 | 1.01 ± 0.09 | 1.04 ± 0.052 | 1.01 ± 0.059 | 1.02 ± 0.053 | 1.06 ± 0.051
8 | NOS1 BONE | 1.16 ± 0.077 | 0.972 ± 0.051 | 0.982 ± 0.1 | 0.643 ± 0.074 | 0.752 ± 0.11 | 0.455 ± 0.036 | 0.106 ± 0.013 | 0.0487 ± 0.0068 | 1.11 ± 0.046 | 1.19 ± 0.1 | 1.15 ± 0.094 | 1.08 ± 0.056 | 0.989 ± 0.16 | 0.965 ± 0.11 | 0.609 ± 0.046 | 0.37 ± 0.05
9 | NY BONE | 0.959 ± 0.019 | 0.966 ± 0.013 | 0.981 ± 0.015 | 0.876 ± 0.058 | 0.294 ± 0.015 | 0.201 ± 0.0044 | 0.0617 ± 0.004 | 0.0443 ± 0.0057 | 0.932 ± 0.031 | 0.942 ± 0.013 | 0.964 ± 0.015 | 1 ± 0.029 | 0.895 ± 0.019 | 0.701 ± 0.015 | 0.337 ± 0.019 | 0.31 ± 0.004
